# Laboratory results taken from paper PMC11878239, “Biochemical investigations using mass spectrometry to monitor JMJD6-catalysed hydroxylation of multi-lysine containing bromodomain-derived substrates” (RSC Chemical Biology, 2025).
# Entries after “also recorded” stand apart in the source; their conditions may differ.
# Experiments:
# [1] = molecular target: T1, full-length His6-JMJD6 (Homo sapiens, UniProt Q6NYC1); test: LC-MS of JMJD6-catalysed hydroxylation under 18O2 or in 18OH2; type: biochemical; details: 2OG 2 mM, FAS 20 μM, LAA 1 mM, peptide 50 μM, Tris pH 7.5, 24 h, room temperature
# T1 construct: An enzyme mixture (10 μL) containing full-length His6-JMJD6 (5 μM; final concentration: 0.05 μM); made in house; host or cells: Escherichia coli BL21 (DE3), pET-28a(+) plasmid
# Procedure: […] The assay solutions were transferred to a custom-made air-tight container, which was then sealed and removed from the anaerobic chamber. […] The container was evacuated and then filled with […] to a pressure of ∼700 mbar. […] The enzyme reactions were incubated for 24 h at room temperature, after which time the container was returned to the anaerobic chamber. The reactions were stopped by the addition of 10%v/v aqueous formic acid (20 μL) and analysed by LC–MS using an Agilent 1290 infinity II LC system comprising a 1290 infinity II multi-sampler and a 1290 infinity II high speed pump connected to an Agilent 6550 accurate mass iFunnel quadrupole time-of-flight (QTOF) mass spectrometer. Samples (6 μL) were injected onto a 2.1 × 50 mm, 1.8 μm ZORBAX RRHD Eclipse Plus C18 column equipped with a UHPLC guard column (Agilent; flow rate: 0.2 mL min^−1). […] Acquired data were analysed using Agilent MassHunter Qualitative Analysis (version B.07.00).
# Tris buffer, cofactor and BRD4_511–550 stock solutions were prepared using ^18OH2 (CK Isotopes) and JMJD6 was buffer exchanged into 50 mM Tris (pH 7.5) in ^18OH2. The enzyme reactions were incubated under an ambient atmosphere at room temperature for 24 h, after which the reactions were stopped by the addition of 10%v/v aqueous formic acid (20 μL) and analysed by LC–MS as described above.
# [2] = retention on SPE cartridges; type: physicochemical; details: C4 SPE cartridge
# Excerpt: The JMJD6-catalysed hydroxylation of the BRD-derived substrate peptide was monitored at ambient temperature by SPE-MS using a RapidFire RF 365 high-throughput sampling robot (Agilent) attached to an iFunnel Agilent 6550 accurate mass quadrupole time-of-flight (Q-TOF) mass spectrometer, which was operated in the positive ionization mode. Assay samples were aspirated under vacuum for 0.4 s, then loaded onto a C4 solid phase extraction (SPE) cartridge. After loading, the C4 SPE cartridge was washed with 0.1%v/v aqueous formic acid to remove non-volatile buffer salts (5 s, 1.5 mL min^−1). The peptide was eluted from the SPE cartridge with 0.1%v/v aqueous formic acid in 75/25v/v acetonitrile/water into the mass spectrometer (5 s, 1.6 mL min^−1) and the SPE cartridge re-equilibrated with 0.1%v/v aqueous formic acid (1 s, 1.25 mL min^−1).
# [3] = molecular target: T1, full-length His6-JMJD6; test: SPE-MS kinetics of JMJD6-catalysed lysyl hydroxylation (2OG, Fe(II), LAA, BRD-derived peptides); type: biochemical; details: for tri- or higher-order hydroxylation: 0.05 μM JMJD6, SPE-MS time courses
# Procedure: (§1) Recombinant human JMJD6 (full length with a N-terminal His6-tag) was produced in Escherichia coli BL21 (DE3) cells using a pET-28a(+) plasmid and purified by standard Ni(II)-affinity size-exclusion chromatography, as previously reported.[40] […] Purified JMJD6 was stored at −78 °C; fresh aliquots were used for all JMJD6 assays.
# Peptides were used as 10 mM stock solutions in DMSO (Sigma-Aldrich; BioUltra grade).
# Assay samples were aspirated under vacuum for 0.4 s, then loaded onto a C4 solid phase extraction (SPE) cartridge. After loading, the C4 SPE cartridge was washed with 0.1%v/v aqueous formic acid to remove non-volatile buffer salts (5 s, 1.5 mL min^−1). The peptide was eluted from the SPE cartridge with 0.1%v/v aqueous formic acid in 75/25v/v acetonitrile/water into the mass spectrometer (5 s, 1.6 mL min^−1) and the SPE cartridge re-equilibrated with 0.1%v/v aqueous formic acid (1 s, 1.25 mL min^−1).
# Peaks corresponding to the m/z +5 charge states of the BRD-derived substrate peptide and the hydroxylated product peptides were extracted from the ion chromatogram and integrated using RapidFire Integrator 4.3.0 (Agilent). Peak area data were exported into Microsoft Excel and used to calculate the relative abundance of the mono-hydroxylated product peptide using the following equation: […]
# The concentration of the mono-hydroxylated product peptide was calculated by multiplying the %-fraction of the mono-hydroxylated product peptide by the initial concentration of the substrate peptide employed in the assay. Initial reaction velocities were then calculated and fitted to a Michaelis–Menten plot using nonlinear regression (GraphPad Prism 5).
# [4] = molecular target: T1, full-length His6-JMJD6; test: SPE-MS kinetics of JMJD6 for O2; type: biochemical
# Procedure: as §1
# Assays to determine the kinetic parameters of JMJD6 for O2 were performed in 2 mL gas-tight glass vials (Sigma-Aldrich) in independent triplicates. 50 mM Tris buffer (pH 7.5; 0.95 mL) was incubated in a 2 mL gas-tight glass vial at 37 °C for 30 min with a fixed O2 concentration (in N2; specified in Fig S9, ESI ^†), adjusted using a mass flow controller. […] The JMJD6-catalysed reaction was performed at 37 °C at a fixed O2 concentration and was stopped after the reaction time specified (Fig. S9, ESI ^†) by the addition of 20%v/v aqueous formic acid (100 μL) and analysed by SPE-MS. The %-concentration of O2 in N2, adjusted with a mass flow controller, was converted into an O2 concentration [μM] by calibration using a standard (i.e., y[μM] = 9.026·x[%]).[100] Data were analysed by SPE-MS as described above to calculate apparent JMJD6 kinetic parameters for O2.
sequence,measurement,setting,value
"LAELQEQLKAVHEQLAALSQPQQNKPKKKEKDKKEKKKEK [BRD4_511–550, 40-mer peptide fragment derived from human BRD4, JMJD6 substrate, prepared by SPPS]",incorporated oxygen in 18OH2,"[1]; 16O2 atmosphere in 18OH2, JMJD6 2 μM",complete incorporation of ^16O from atmospheric O2
same,mass shifts / origin of incorporated oxygen under 18O2,"[1]; 18O2 atmosphere in H2O, JMJD6 2 μM","successive +18 Da shifts; also recorded: originates, at least, predominantly from ^18O2; also recorded: originate predominantly from atmospheric O2"
same,retention on SPE cartridge,[2],efficiently retained on a C4 SPE cartridge
same,tri- or higher-order hydroxylation,[3]; ambient temperature,negligible levels of BRD4_511–550 hydroxylations beyond mono-hydroxylation
same,tri- or higher-order hydroxylation,"[3]; ambient temperature, listed as BRD4511-550",No evidence for triple; also recorded: No evidence for triple (or higher order)
same,apparent maximum velocity v^app max,"[3]; BRD peptide substrate varied, 0.05 μM full-length His6-JMJD6, 2OG 200 μM, FAS 2 μM, LAA 100 μM, 50 mM Tris pH 7.5, ambient temperature, mono-hydroxylation, substrate inhibition fit, mean ± SD n = 3",5.8 ± 1.2 nM/s
same,K m,"[3]; BRD peptide substrate varied, 0.05 μM full-length His6-JMJD6, 2OG 200 μM, FAS 2 μM, LAA 100 μM, 50 mM Tris pH 7.5, ambient temperature, substrate inhibition fit, mean ± SD n = 3, read-out: Michaelis constant Km (K^app m)",620 ± 260 nM
same,turnover number kcat (k^app cat),"[3]; BRD peptide substrate varied, 0.05 μM full-length His6-JMJD6, 2OG 200 μM, pH 7.5, SPE-MS, calculated from v^app max assuming active JMJD6 = total enzyme, n = 3",0.12 ± 0.02 s⁻¹
same,catalytic efficiency kcat/Km,"[3]; BRD peptide substrate varied, 0.05 μM full-length His6-JMJD6, 2OG 200 μM, pH 7.5, SPE-MS, n = 3",190 ± 80 mM⁻¹ s⁻¹
same,relative abundance of mono-hydroxylated peptide at plateau,"[3]; absence of LAA, after ~10 min, 50 nM JMJD6, 2OG 200 μM, FAS 2 μM, peptide 2 μM, pH 7.5, n = 3",~15%
same,substrate inhibition of JMJD6 catalysis,[3]; high substrate concentrations (>2 μM),inhibit JMJD6 catalysis
same,JMJD6-catalysed hydroxylation at low O2,[4]; [O2] < 2.5%,inhibited at low oxygen concentrations; also recorded: sensitive to low O2 concentrations
same,di- or higher-order hydroxylation,"[4]; varied O2, 37 °C, 60 or 90 s",no evidence for di- (or higher order) hydroxylation
